The assay deals with HCT116 colorectal cancer cells. Description: Cisplatin sensitization assay (96 h cell viability MTS).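 Note: Test-compound concentration that lowers the Cisplatin IC50 by a set fold.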 The assay is classed as cell-based. The note with it: compound and Cisplatin added simultaneously, Cisplatin sensitization value. The method in brief:
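Viability read by MTS (1 h at 37° C) after 96 h co-exposure at 37° C, 5% CO2. Test compound and cisplatin were dosed simultaneously in a full concentration matrix, each 2-fold serially diluted from 10 μM final; sensitization values binned in μM.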
Turning to `Nc1nn2cc(F)cnc2c1C(=O)Nc1cncc(Cl)c1N1CCC(C(=O)N2CCN3CCC2CC3)CC1` [I-G-66, N-(4-(4-(1,4-diazabicyclo[3.2.2]nonane-4-carbonyl)piperidin-1-yl)-5-chloropyridin-3-yl)-2-amino-6-fluoropyrazolo[1,5-a]pyrimidine-3-carboxamide], the “Cisplatin Sensitization Assay” value is “+++ (Cisplatin sensitization value of <0.02 μM)”.
For the compound `Nc1nn2cc(F)cnc2c1C(=O)Nc1cncc(F)c1N1CCC(C(=O)N2CC(F)C2)CC1` [I-G-67, 2-amino-6-fluoro-N-(5-fluoro-4-(4-(3-fluoroazetidine-1-carbonyl)piperidin-1-yl)pyridin-3-yl)pyrazolo[1,5-a]pyrimidine-3-carboxamide], the “Cisplatin Sensitization Assay” value is “+++ (Cisplatin sensitization value of <0.02 μM)”.
On to `Nc1nn2cc(F)cnc2c1C(=O)Nc1cncc(F)c1N1CCC(C(=O)N2CCC(N3CCC3)CC2)CC1` [I-G-68, 2-amino-N-(4-(4-(4-(azetidin-1-yl)piperidine-1-carbonyl)piperidin-1-yl)-5-fluoropyridin-3-yl)-6-fluoropyrazolo[1,5-a]pyrimidine-3-carboxamide], for which the “Cisplatin Sensitization Assay” value is “+++ (Cisplatin sensitization value of <0.02 μM)”.
`Nc1nn2cc(F)cnc2c1C(=O)Nc1cncc(Cl)c1N1CCC(C(=O)N2CCN3CCC2C3)CC1` (stereo not shown) [I-G-69, N-(4-(4-(1,4-diazabicyclo[3.2.1]octane-4-carbonyl)piperidin-1-yl)-5-chloropyridin-3-yl)-2-amino-6-fluoropyrazolo[1,5-a]pyrimidine-3-carboxamide]: the “Cisplatin Sensitization Assay” value is “+++ (Cisplatin sensitization value of <0.02 μM)”.
As to `Nc1nn2cc(F)cnc2c1C(=O)Nc1cncc(F)c1N1CCC(C(=O)N2CC(F)(F)C2)CC1` [I-G-73, 2-amino-N-(4-(4-(3,3-difluoroazetidine-1-carbonyl)piperidin-1-yl)-5-fluoropyridin-3-yl)-6-fluoropyrazolo[1,5-a]pyrimidine-3-carboxamide], the “Cisplatin Sensitization Assay” value is listed as “+++ (Cisplatin sensitization value of <0.02 μM)”.
As to `COC1(C)CN(C(=O)C2CCN(c3c(F)cncc3NC(=O)c3c(N)nn4cc(F)cnc34)CC2)C1` [I-G-75, 2-amino-6-fluoro-N-(5-fluoro-4-(4-(3-methoxy-3-methylazetidine-1-carbonyl)piperidin-1-yl)pyridin-3-yl)pyrazolo[1,5-a]pyrimidine-3-carboxamide], the “Cisplatin Sensitization Assay” value is given as “+++ (Cisplatin sensitization value of <0.02 μM)”.
`N#CC1CN(C(=O)C2CCN(c3c(F)cncc3NC(=O)c3c(N)nn4cc(F)cnc34)CC2)C1` [I-G-76, 2-amino-N-(4-(4-(3-cyanoazetidine-1-carbonyl)piperidin-1-yl)-5-fluoropyridin-3-yl)-6-fluoropyrazolo[1,5-a]pyrimidine-3-carboxamide]: the “Cisplatin Sensitization Assay” value is “+++ (Cisplatin sensitization value of <0.02 μM)”.
In the case of `Nc1nn2cc(F)cnc2c1C(=O)Nc1cnccc1N1CCC(C(=O)N2CCC2)CC1` [I-G-77, 2-amino-N-(4-(4-(azetidine-1-carbonyl)piperidin-1-yl)pyridin-3-yl)-6-fluoropyrazolo[1,5-a]pyrimidine-3-carboxamide], the “Cisplatin Sensitization Assay” value is given as “+++ (Cisplatin sensitization value of <0.02 μM)”.
The entry for `COC1CN(C(=O)C2CCN(c3ccncc3NC(=O)c3c(N)nn4cc(F)cnc34)CC2)C1` [I-G-78, 2-amino-6-fluoro-N-(4-(4-(3-methoxyazetidine-1-carbonyl)piperidin-1-yl)pyridin-3-yl)pyrazolo[1,5-a]pyrimidine-3-carboxamide] is “+++ (Cisplatin sensitization value of <0.02 μM)”.
For `COC1(C)CN(C(=O)C2CCN(c3ccncc3NC(=O)c3c(N)nn4cc(F)cnc34)CC2)C1` [I-G-79, 2-amino-6-fluoro-N-(4-(4-(3-methoxy-3-methylazetidine-1-carbonyl)piperidin-1-yl)pyridin-3-yl)pyrazolo[1,5-a]pyrimidine-3-carboxamide], the “Cisplatin Sensitization Assay” value is given as “+++ (Cisplatin sensitization value of <0.02 μM)”.
Take `Nc1nn2cc(F)cnc2c1C(=O)Nc1cnccc1N1CCC(C(=O)N2CC(F)(F)C2)CC1` [I-G-80, 2-amino-N-(4-(4-(3,3-difluoroazetidine-1-carbonyl)piperidin-1-yl)pyridin-3-yl)-6-fluoropyrazolo[1,5-a]pyrimidine-3-carboxamide]: the “Cisplatin Sensitization Assay” value is on record as “+++ (Cisplatin sensitization value of <0.02 μM)”.
Turning to `N#CC1CN(C(=O)C2CCN(c3ccncc3NC(=O)c3c(N)nn4cc(F)cnc34)CC2)C1` [I-G-81, 2-amino-N-(4-(4-(3-cyanoazetidine-1-carbonyl)piperidin-1-yl)pyridin-3-yl)-6-fluoropyrazolo[1,5-a]pyrimidine-3-carboxamide], the “Cisplatin Sensitization Assay” value is on record as “+++ (Cisplatin sensitization value of <0.02 μM)”.
In the case of `Nc1nn2cc(F)cnc2c1C(=O)Nc1cnccc1N1CCC(C(=O)N2CC(F)C2)CC1` [I-G-82, 2-amino-6-fluoro-N-(4-(4-(3-fluoroazetidine-1-carbonyl)piperidin-1-yl)pyridin-3-yl)pyrazolo[1,5-a]pyrimidine-3-carboxamide], the “Cisplatin Sensitization Assay” value was “+++ (Cisplatin sensitization value of <0.02 μM)”.
On to `Nc1nn2cc(F)cnc2c1C(=O)Nc1cnccc1N1CCC(C(=O)N2CCCC2)CC1` [I-G-83, 2-amino-6-fluoro-N-(4-(4-(pyrrolidine-1-carbonyl)piperidin-1-yl)pyridin-3-yl)pyrazolo[1,5-a]pyrimidine-3-carboxamide], for which the “Cisplatin Sensitization Assay” value is given as “+++ (Cisplatin sensitization value of <0.02 μM)”.
As for `Nc1nn2cc(F)cnc2c1C(=O)Nc1cnccc1N1CCC(C(=O)N2CCC3(COC3)C2)CC1` [I-G-84, N-(4-(4-(2-oxa-6-azaspiro[3.4]octane-6-carbonyl)piperidin-1-yl)pyridin-3-yl)-2-amino-6-fluoropyrazolo[1,5-a]pyrimidine-3-carboxamide], the “Cisplatin Sensitization Assay” value is “+++ (Cisplatin sensitization value of <0.02 μM)”.
In the case of `Nc1nn2cc(F)cnc2c1C(=O)Nc1cnccc1N1CCC(C(=O)N2CCOCC2)CC1` [I-G-85, 2-amino-6-fluoro-N-(4-(4-(morpholine-4-carbonyl)piperidin-1-yl)pyridin-3-yl)pyrazolo[1,5-a]pyrimidine-3-carboxamide] it was “+++ (Cisplatin sensitization value of <0.02 μM)”; in that of `CS(=O)(=O)C1CN(C(=O)C2CCN(c3c(F)cncc3NC(=O)c3c(N)nn4cc(F)cnc34)CC2)C1` [I-G-86, 2-amino-6-fluoro-N-(5-fluoro-4-(4-(3-(methylsulfonyl)azetidine-1-carbonyl)piperidin-1-yl)pyridin-3-yl)pyrazolo[1,5-a]pyrimidine-3-carboxamide], “+++ (Cisplatin sensitization value of <0.02 μM)”; in that of `Nc1nn2cc(Cl)cnc2c1C(=O)Nc1cncc(F)c1N1CCC(C(=O)N2CCN3CCC2CC3)CC1` [I-G-87, N-(4-(4-(1,4-diazabicyclo[3.2.2]nonane-4-carbonyl)piperidin-1-yl)-5-fluoropyridin-3-yl)-2-amino-6-chloropyrazolo[1,5-a]pyrimidine-3-carboxamide], “+++ (Cisplatin sensitization value of <0.02 μM)”.
`Nc1nn2cc(F)cnc2c1C(=O)Nc1cnccc1N1CCC(C(=O)N2CC3(COC3)C2)CC1` [I-G-88, N-(4-(4-(2-oxa-6-azaspiro[3.3]heptane-6-carbonyl)piperidin-1-yl)pyridin-3-yl)-2-amino-6-fluoropyrazolo[1,5-a]pyrimidine-3-carboxamide]: the “Cisplatin Sensitization Assay” value is listed as “+++ (Cisplatin sensitization value of <0.02 μM)”.
`CS(=O)(=O)C1CN(C(=O)C2CCN(c3ccncc3NC(=O)c3c(N)nn4cc(F)cnc34)CC2)C1` [I-G-89, 2-amino-6-fluoro-N-(4-(4-(3-(methylsulfonyl)azetidine-1-carbonyl)piperidin-1-yl)pyridin-3-yl)pyrazolo[1,5-a]pyrimidine-3-carboxamide]: the “Cisplatin Sensitization Assay” value was “+ (Cisplatin sensitization value>0.2 μM but <5 μM)”.
In the case of `Nc1nn2cc(F)cnc2c1C(=O)Nc1cnccc1N1CCC(C(=O)N2CC3(CCO3)C2)CC1` [I-G-90, N-(4-(4-(1-oxa-6-azaspiro[3.3]heptane-6-carbonyl)piperidin-1-yl)pyridin-3-yl)-2-amino-6-fluoropyrazolo[1,5-a]pyrimidine-3-carboxamide], the “Cisplatin Sensitization Assay” value is “+++ (Cisplatin sensitization value of <0.02 μM)”.
Turning to `CCOC1CN(C(=O)C2CCN(c3ccncc3NC(=O)c3c(N)nn4cc(F)cnc34)CC2)C1` [I-G-91, 2-amino-N-(4-(4-(3-ethoxyazetidine-1-carbonyl)piperidin-1-yl)pyridin-3-yl)-6-fluoropyrazolo[1,5-a]pyrimidine-3-carboxamide], the “Cisplatin Sensitization Assay” value was “+++ (Cisplatin sensitization value of <0.02 μM)”.
On to `CC1(N2CCN(C(=O)C3CCN(c4c(F)cncc4NC(=O)c4c(N)nn5cc(F)cnc45)CC3)CC2)COC1` [I-G-92, 2-amino-6-fluoro-N-(5-fluoro-4-(4-(4-(3-methyloxetan-3-yl)piperazine-1-carbonyl)piperidin-1-yl)pyridin-3-yl)pyrazolo[1,5-a]pyrimidine-3-carboxamide], for which the “Cisplatin Sensitization Assay” value was “+++ (Cisplatin sensitization value of <0.02 μM)”.
The entry for `CO[C@@H]1CCN(C(=O)C2CCN(c3ccncc3NC(=O)c3c(N)nn4cc(F)cnc34)CC2)C1` [I-G-93, (R)-2-amino-6-fluoro-N-(4-(4-(3-methoxypyrrolidine-1-carbonyl)piperidin-1-yl)pyridin-3-yl)pyrazolo[1,5-a]pyrimidine-3-carboxamide] is “+++ (Cisplatin sensitization value of <0.02 μM)”.
Consider `CO[C@H]1CCN(C(=O)C2CCN(c3ccncc3NC(=O)c3c(N)nn4cc(F)cnc34)CC2)C1` [I-G-94, (S)-2-amino-6-fluoro-N-(4-(4-(3-methoxypyrrolidine-1-carbonyl)piperidin-1-yl)pyridin-3-yl)pyrazolo[1,5-a]pyrimidine-3-carboxamide], for which the “Cisplatin Sensitization Assay” value is “+++ (Cisplatin sensitization value of <0.02 μM)”.

The values are drawn from patent publication US11370798B2 (Vertex Pharmaceuticals Incorporated, priority 2012, dated 2022).
